Data taken from EPA's CvTdb concentration-time database (doi:10.1093/toxsci/kfy020).

Legend:
Assay in all cases: concentration in plasma after dosing
[1] = tested on: rat; details: dosed: Permethrin, 5.0000000000 mg/kg, oral, male, Sprague-Dawley
[2] = tested on: rat; details: dosed: Permethrin, 5.0000000000 mg/kg, oral, male, Sprague-Dawley; remark: listed apart in the source
[3] = tested on: rat; details: dosed: Permethrin, 5.0000000000 mg/kg, oral, male, Sprague-Dawley; remark: listed apart in the source
[4] = tested on: rat; details: dosed: Permethrin, 5.0000000000 mg/kg, oral, male, Sprague-Dawley; remark: listed apart in the source
[5] = tested on: rat; details: dosed: Permethrin, 5.0000000000 mg/kg, oral, male, Sprague-Dawley; remark: listed apart in the source
[6] = tested on: rat; details: dosed: Permethrin, 1.0000000000 mg/kg, iv, male, Sprague-Dawley
[7] = tested on: rat; details: male, Sprague-Dawley
[8] = tested on: rat; details: dosed: Permethrin, 1.0000000000 mg/kg, iv, male, Sprague-Dawley; remark: listed apart in the source
[9] = tested on: rat; details: dosed: Etoxazole, 2.0000000000 mg/kg, oral, male, Sprague-Dawley
[10] = tested on: rat; details: dosed: Etoxazole, 2.0000000000 mg/kg, oral, male, Sprague-Dawley; remark: listed apart in the source
[11] = tested on: rat; details: dosed: Etoxazole, 0.4000000000 mg/kg, iv, male, Sprague-Dawley
[12] = tested on: rat; details: dosed: Etoxazole, 0.4000000000 mg/kg, iv, male, Sprague-Dawley; remark: listed apart in the source
[13] = tested on: rat; details: dosed: Etoxazole, 2.0000000000 mg/kg, oral, male, Sprague-Dawley; remark: listed apart in the source
[14] = tested on: rat; details: dosed: Etoxazole, 2.0000000000 mg/kg, oral, male, Sprague-Dawley; remark: listed apart in the source
[15] = tested on: rat; details: dosed: Etoxazole, 0.4000000000 mg/kg, iv, male, Sprague-Dawley; remark: listed apart in the source
[16] = tested on: rat; details: dosed: Triclosan, 1.0000000000 mg/kg, iv, male, Sprague-Dawley
[17] = tested on: rat; details: dosed: Triclosan, 1.0000000000 mg/kg, iv, male, Sprague-Dawley; remark: listed apart in the source
[18] = tested on: rat; details: dosed: Triclosan, 1.0000000000 mg/kg, iv, male, Sprague-Dawley; remark: listed apart in the source
[19] = tested on: rat; details: dosed: Triclosan, 1.0000000000 mg/kg, iv, male, Sprague-Dawley; remark: listed apart in the source
[20] = tested on: rat; details: dosed: Triclosan, 1.0000000000 mg/kg, iv, male, Sprague-Dawley; remark: listed apart in the source
[21] = tested on: rat; details: dosed: S-Bioallethrin, 4.0000000000 mg/kg, oral, male, Sprague-Dawley
[22] = tested on: rat; details: dosed: S-Bioallethrin, 0.8000000000 mg/kg, iv, male, Sprague-Dawley
[23] = tested on: rat; details: dosed: S-Bioallethrin, 0.8000000000 mg/kg, iv, male, Sprague-Dawley; remark: listed apart in the source
[24] = tested on: rat; details: dosed: S-Bioallethrin, 0.8000000000 mg/kg, iv, male, Sprague-Dawley; remark: listed apart in the source

CC1(C)C(C=C(Cl)Cl)C1C(=O)OCc1cccc(Oc2ccccc2)c1 (configuration not stated) [Permethrin]
concentration in plasma [ng/mL]
Details	0.25 h	0.5 h	1 h	2 h	4 h	8 h	10 min	12 h
[1]	21.3	15.7	18.3	21.5	28.4	15.1	–	–
[2]	–	7.1	10.5	14.9	16	7.8	–	3.3
[3]	–	37	54.2	62.2	48.5	12.3	10.1	1.5
[4]	–	8.1	15.2	15.9	–	–	–	–
[5]	–	33.4	87.2	40.8	27.2	–	–	–
[6]	–	–	9.5	–	2.1	–	–	–
[8]	–	–	–	–	–	–	3	2.9

concentration in plasma [ng/mL], [7], dosed: Permethrin
Details	0.5 h	1 h	2 h	4 h	8 h	10 min	12 h	48 h
1.0000000000 mg/kg, iv	–	6.7	–	–	–	15.9	–	–
5.0000000000 mg/kg, oral	44.4	64.2	71	53.2	26.1	15	8.4	5.2

CCOc1cc(C(C)(C)C)ccc1C1COC(c2c(F)cccc2F)=N1 (configuration not stated) [Etoxazole]
concentration in plasma [ng/mL]
Details	[9]	[10]	[11]	[12]	[13]	[14]	[15]
0.25 h	15.1	15.8	–	–	14.6	9.12	–
0.5 h	22.4	18.5	20.5	60	23	16.8	43.6
1 h	29.7	23.8	7.3	18.9	33.7	25.3	15.7
2 h	31.5	7.62	2.78	4.7	24.3	31	4.19
4 h	13.6	2.16	1.69	0.86	11.9	9.37	1.89
5 min	–	–	78.2	142	–	–	126
8 h	5.34	4.85	0.69	0.54	10.3	–	0.28
10 min	–	–	50.2	66.8	–	–	72.5
12 h	1	1.6	0.56	–	1.45	–	–
24 h	0.46	0.18	0.3	0.36	0.53	–	–
48 h	0.2	–	0.14	–	0.12	–	–
72 h	0.16	–	–	–	0.13	–	–

[7], dosed: Etoxazole
Details	concentration in plasma [ng/mL]
0.25 h, 2.0000000000 mg/kg, oral	36
0.5 h, 0.4000000000 mg/kg, iv	31.1
0.5 h, 2.0000000000 mg/kg, oral	41.2
1 h, 0.4000000000 mg/kg, iv	14
1 h, 2.0000000000 mg/kg, oral	49.5
2 h, 0.4000000000 mg/kg, iv	3.62
2 h, 2.0000000000 mg/kg, oral	23.7
4 h, 0.4000000000 mg/kg, iv	1.53
4 h, 2.0000000000 mg/kg, oral	8.72
5 min, 0.4000000000 mg/kg, iv	145
8 h, 0.4000000000 mg/kg, iv	0.14
8 h, 2.0000000000 mg/kg, oral	11.7
10 min, 0.4000000000 mg/kg, iv	86.3
12 h, 2.0000000000 mg/kg, oral	1.84
24 h, 2.0000000000 mg/kg, oral	0.61
48 h, 2.0000000000 mg/kg, oral	0.15
72 h, 2.0000000000 mg/kg, oral	0.11

Oc1cc(Cl)ccc1Oc1ccc(Cl)cc1Cl [Triclosan]
concentration in plasma [ng/mL]
Details	0.5 h	1 h	2 h	5 min	10 min	72 h
[16]	24.8	6.4	–	270	129	6.2
[17]	23.9	6.6	–	72.7	36.7	–
[18]	200	–	–	903	367	–
[19]	5.7	10.4	5	1	2.1	2.9
[20]	102	24.9	–	469	374	–

[7], dosed: Triclosan, 1.0000000000 mg/kg, iv
Details	concentration in plasma [ng/mL]
0.5 h	39.6
5 min	474
10 min	211

C=CCC1=C(C)[C@@H](OC(=O)[C@@H]2[C@@H](C=C(C)C)C2(C)C)CC1=O [S-Bioallethrin]
concentration in plasma [ng/mL]
Details	0.25 h	0.5 h	1 h	2 h	4 h	5 min	8 h	10 min
[21]	2.5	2.2	4.9	–	–	–	–	–
[22]	–	24.5	5.2	6.9	2.9	–	1.5	76.7
[23]	–	13.1	–	6.7	1.9	60.4	–	43.5
[24]	–	31.3	11	2.5	1.6	–	–	30.2

concentration in plasma [ng/mL], [7], dosed: S-Bioallethrin
Details	0.5 h	1 h	2 h	4 h	5 min
0.8000000000 mg/kg, iv	2.7	3	3.4	1.6	19.2
4.0000000000 mg/kg, oral	1.6	6	1.2	–	–
